Measurements reported in patent publication US20050245594A1, “Dermal delivery of anti-pain agents and methods useful thereof” (priority 2001, published 2005).
Read-outs that look alike come from different tables or passages of the source.

How the values were obtained:
[1] = Crossover PK study: plasma sumatriptan by LC/MS/MS after ID/junctional vs SC administration (Tmax, Cmax, AUC, relative F); format: in vivo, Yucatan miniswine; settings: for rel. F 10 min / rel. F Total: compared to SC; for Cmax / AUC: minipig, plasma; for AUC: read-out: AUC 10 mm. (converted)
[2] = test system: Yorkshire Swine skin (injection site); settings: pig, in vivo
[3] = Yucatan miniswine, 1 × 1.5 mm × 30 g, 0 mg/ml
[4] = Yucatan miniswine, 1 × 2 mm × 30 g, 30 mg/ml
[5] = Yucatan miniswine, 1 × 3 mm × 30 g, 30 mg/ml
[6] = Yucatan miniswine, 3 × 2 mm × 34 g, 30 mg/ml
[7] = Yucatan miniswine, sc, 12 mg/ml
[8] = Yucatan, 3 × 3 mm × 34 g, 12 mg/ml

- AUC total ([1]; 1 × 1.5 mm × 30 g, 0 mg/ml): 27696.167 ng·min/mL
- rel. F 10 min ([1]; 1 × 1.5 mm × 30 g, 0 mg/ml): 186.777%
- rel. F Total ([1]; 1 × 1.5 mm × 30 g, 0 mg/ml): 117.806%
- AUC total ([1]; 1 × 2 mm × 30 g, 30 mg/ml): 23548.167 ng·min/mL
- rel. F 10 min ([1]; 1 × 2 mm × 30 g, 30 mg/ml): 165.993%
- rel. F Total ([1]; 1 × 2 mm × 30 g, 30 mg/ml): 100.162%
- AUC total ([1]; 1 × 3 mm × 30 g, 30 mg/ml): 27335.167 ng·min/mL
- rel. F 10 min ([1]; 1 × 3 mm × 30 g, 30 mg/ml): 190.490%
- rel. F Total ([1]; 1 × 3 mm × 30 g, 30 mg/ml): 116.270%
- AUC total ([1]; 3 × 2 mm × 34 g, 30 mg/ml): 30006.000 ng·min/mL
- rel. F 10 min ([1]; 3 × 2 mm × 34 g, 30 mg/ml): 153.272%
- rel. F Total ([1]; 3 × 2 mm × 34 g, 30 mg/ml): 127.631%
- AUC total ([1]; 3 × 3 mm × 34 g, 12 mg/ml): 25642.833 ng·min/mL
- rel. F 10 min ([1]; 3 × 3 mm × 34 g, 12 mg/ml): 116.434%
- rel. F Total ([1]; 3 × 3 mm × 34 g, 12 mg/ml): 109.072%
- AUC total ([1]; 3 × 3 mm × 34 g, 30 mg/ml): 25947.667 ng·min/mL
- rel. F 10 min ([1]; 3 × 3 mm × 34 g, 30 mg/ml): 117.806%
- rel. F Total ([1]; 3 × 3 mm × 34 g, 30 mg/ml): 110.369%
- AUC total ([1]; IV, 12 mg/ml): 16626.000 ng·min/mL
- rel. F 10 min ([1]; IV, 12 mg/ml): 131.820%
- rel. F Total ([1]; IV, 12 mg/ml): 70.719%
- Maximum concentration levels at early time points ([1]; Intradermal and/or junctional administration vs SC): elevated
- AUC total ([1]; SC, 12 mg/ml): 23510.000 ng·min/mL
- rel. F 10 min ([1]; SC, 12 mg/ml): 100.000%
- rel. F Total ([1]; SC, 12 mg/ml): 100.000%
- Cmax [1, 3]: 824 ng/mL
- AUC [1, 3]: 84.7 ng·h/mL
- Cmax [1, 4]: 849 ng/mL
- AUC [1, 4]: 75.2 ng·h/mL
- Cmax [1, 5]: 837 ng/mL
- AUC [1, 5]: 86.4 ng·h/mL
- Cmax [1, 6]: 726 ng/mL
- AUC [1, 6]: 69.5 ng·h/mL
- Cmax ([1]; Yucatan miniswine, 3 × 3 mm × 34 g, 30 mg/ml): 649 ng/mL
- Cmax [1, 7]: 527 ng/mL
- AUC [1, 7]: 45.3 ng·h/mL
- Cmax [1, 8]: 706 ng/mL
- AUC [1, 8]: 52.8 ng·h/mL
- AUC ([1]; Yucatan, 3 × 3 mm × 34 g, 30 mg/ml): 53.4 ng·h/mL
- Cmax ([1]; Yucatan, iv, 12 mg/ml): 661 ng/mL
- AUC ([1]; Yucatan, iv, 12 mg/ml): 59.8 ng·h/mL
- Erythema Mean ([2]; 4 h): 0.1
- Erythema Median ([2]; 4 h): 0.2
- Edema Median ([2]; 6 h): 0
- Edema Median ([2]; 8 h): 0
- Edema Mean ([2]; 24 h): 0.0
- Edema Median ([2]; 24 h): 0
- Erythema Mean ([2]; 24 h): 0.0
- Erythema Median ([2]; 24 h): 0.0
Compound: CNS(=O)(=O)Cc1ccc2[nH]cc(CCN(C)C)c2c1 [sumatriptan, 3-[2-(dimethylamino)ethyl]-N-methyl-indole-5-methanesulfonamide]
